Key:
[1] = test system: Human immunodeficiency virus 1; assay: Antiviral activity against wild-type HIV-1 IIIB infected in human MT4 cells assessed as protection against virus-induced cytopathic effect incubated for 5 days by MTT assay; assay type: functional, organism-based; settings: Human immunodeficiency virus 1, IIIB, MT4, 120 h
[2] = Cytotoxicity against human MT4 cells assessed as reduction in cell viability incubated for 5 days by MTT assay; assay type: toxicity, cell-based; settings: time 5 day
[3] = Selectivity index, ratio of CC50 for human MT4 cells to EC50 for wild-type HIV-1 IIIB infected in human MT4 cells; assay type: toxicity, cell-based; settings: read-out: Ratio CC50/EC50
[4] = biological target: Human immunodeficiency virus type 1 reverse transcriptase (Human immunodeficiency virus 1, UniProt Q72547); assay: Inhibition of recombinant wild-type HIV-1 reverse transcriptase incubated for 40 mins by fluorescence based assay
[5] = test system: Human immunodeficiency virus 1; assay: Antiviral activity against HIV-1 harboring RT K103N mutant infected in human MT4 cells assessed as protection against virus-induced cytopathic effect incubated for 5 days by MTT assay; assay type: functional, organism-based; settings: Human immunodeficiency virus 1, MT4, 120 h
[6] = test system: Human immunodeficiency virus 1; assay: Antiviral activity against HIV-1 harboring RT Y188L mutant infected in human MT4 cells assessed as protection against virus-induced cytopathic effect incubated for 5 days by MTT assay; assay type: functional, organism-based; settings: Human immunodeficiency virus 1, MT4, 120 h
[7] = test system: Human immunodeficiency virus 1; assay: Antiviral activity against HIV-1 harboring RT E138K mutant infected in human MT4 cells assessed as protection against virus-induced cytopathic effect incubated for 5 days by MTT assay; assay type: functional, organism-based; settings: Human immunodeficiency virus 1, MT4, 120 h
[8] = test system: Human immunodeficiency virus 1; assay: Antiviral activity against HIV-1 harboring RT Y181C mutant infected in human MT4 cells assessed as protection against virus-induced cytopathic effect incubated for 5 days by MTT assay; assay type: functional, organism-based; settings: Human immunodeficiency virus 1, MT4, 120 h
[9] = test system: Human immunodeficiency virus 1; assay: Antiviral activity against HIV-1 harboring RT L100I mutant infected in human MT4 cells assessed as protection against virus-induced cytopathic effect incubated for 5 days by MTT assay; assay type: functional, organism-based; settings: Human immunodeficiency virus 1, MT4, 120 h
[10] = Solubility of compound in phosphate buffer at pH 7.4 by HPLC analysis; assay type: physicochemical
[11] = Solubility of compound in water by HPLC analysis; assay type: physicochemical
[12] = Solubility of compound in phosphate buffer at pH 7 by HPLC analysis; assay type: physicochemical
[13] = Solubility of compound in phosphate buffer at pH 2 by HPLC analysis; assay type: physicochemical

Row | Structure (SMILES) | EC50 [1] | CC50 at 120 h [2] | selectivity ratio [3] | IC50 [4] | EC50 [5] | EC50 [6] | EC50 [7] | EC50 [8] | EC50 [9] | solubility [10] | solubility [11] | solubility [12] | solubility [13]
1 | CCOC(=O)c1cnc(N2CCN(Cc3cccc(C(N)=O)c3)CC2)nc1Oc1c(C)cc(-c2ccc(C#N)cc2)cc1C | 3360 nM | 14800 nM | 4 | – | – | – | – | – | – | – | – | – | –
2 | CCOC(=O)c1cnc(NC2CCN(Cc3ccccc3F)CC2)nc1Oc1c(C)cc(-c2ccc(C#N)cc2)cc1C | 47 nM | 189000 nM | 4040 | 769 nM | – | – | – | – | – | – | – | – | –
3 | CCOC(=O)c1cnc(NC2CCN(Cc3ccc(Cl)cc3)CC2)nc1Oc1c(C)cc(-c2ccc(C#N)cc2)cc1C | 194 nM | 141000 nM | 728 | 314 nM | – | – | – | – | – | – | – | – | –
4 | CCOC(=O)c1cnc(NC2CCN(Cc3ccc(F)cc3)CC2)nc1Oc1c(C)cc(-c2ccc(C#N)cc2)cc1C | 44 nM | 185000 nM | 4180 | 582 nM | 115 nM | 790 nM | 154 nM | 158 nM | 257 nM | – | – | – | –
5 | CCOC(=O)c1cnc(NC2CCN(Cc3cccnc3)CC2)nc1Oc1c(C)cc(-c2ccc(C#N)cc2)cc1C | 35 nM | > 222000 nM | > 6430 | 718 nM | 53 nM | 431 nM | 70 nM | 99 nM | 272 nM | – | – | – | –
6 | CCOC(=O)c1cnc(NC2CCN(Cc3ccc(C#N)cc3)CC2)nc1Oc1c(C)cc(-c2ccc(C#N)cc2)cc1C | 217 nM | 131000 nM | 604 | 782 nM | – | – | – | – | – | – | – | – | –
7 | CCOC(=O)c1cnc(NC2CCN(Cc3ccc(/C=C/C(=O)OC)cc3)CC2)nc1Oc1c(C)cc(-c2ccc(C#N)cc2)cc1C | 79 nM | > 194000 nM | > 2450 | 535 nM | – | – | – | – | – | – | – | – | –
8 | CCOC(=O)c1cnc(NC2CCN(Cc3cccc(C#N)c3)CC2)nc1Oc1c(C)cc(-c2ccc(C#N)cc2)cc1C | 36 nM | 178000 nM | 4960 | 530 nM | 65 nM | 389 nM | 81 nM | 134 nM | 342 nM | – | – | – | –
9 | CCOC(=O)c1cnc(NC2CCN(Cc3ccncc3)CC2)nc1Oc1c(C)cc(-c2ccc(C#N)cc2)cc1C | 16 nM | 60000 nM | 3720 | 527 nM | 13 nM | 87 nM | 73 nM | 66 nM | 73 nM | – | – | – | –
10 | CCOC(=O)c1cnc(NC2CCN(Cc3ccc(S(N)(=O)=O)cc3)CC2)nc1Oc1c(C)cc(-c2ccc(C#N)cc2)cc1C | 35 nM | > 195000 nM | > 5640 | 736 nM | 46 nM | 538 nM | 83 nM | 202 nM | 212 nM | – | – | – | –
11 | CCOC(=O)c1cnc(NC2CCN(Cc3ccc(OC)cc3)CC2)nc1Oc1c(C)cc(-c2ccc(C#N)cc2)cc1C | 33 nM | 125000 nM | 3740 | 622 nM | – | – | – | – | – | – | – | – | –
12 | CCOC(=O)c1cnc(NC2CCN(Cc3ccccc3C#N)CC2)nc1Oc1c(C)cc(-c2ccc(C#N)cc2)cc1C | 50 nM | 196000 nM | 3940 | 327 nM | – | – | – | – | – | – | – | – | –
13 | CCOC(=O)c1cnc(NC2CCN(Cc3ccc(C(=O)NC)cc3)CC2)nc1Nc1c(C)cc(-c2ccc(C#N)cc2)cc1C.O=P(O)(O)O | – | – | – | – | – | – | – | – | – | < 1 µg/mL | 77.2 µg/mL | < 1 µg/mL | 136 µg/mL
14 | CCOC(=O)c1cnc(NC2CCN(Cc3ccc(F)c(F)c3)CC2)nc1Oc1c(C)cc(-c2ccc(C#N)cc2)cc1C | 201 nM | 194000 nM | 967 | 522 nM | – | – | – | – | – | – | – | – | –
15 | CCOC(=O)c1cnc(NC2CCN(Cc3ccc(S(C)(=O)=O)cc3)CC2)nc1Oc1c(C)cc(-c2ccc(C#N)cc2)cc1C | 13 nM | 27900 nM | 2290 | 598 nM | 13 nM | 67 nM | 105 nM | 51 nM | 57 nM | – | – | – | –
16 | CCOC(=O)c1cnc(NC2CCN(Cc3ccc(C)cc3)CC2)nc1Oc1c(C)cc(-c2ccc(C#N)cc2)cc1C | 35 nM | 178000 nM | 5080 | 890 nM | – | – | – | – | – | – | – | – | –
17 | CCOC(=O)c1cnc(NC2CCN(Cc3cccc(C(=O)NC)c3)CC2)nc1Oc1c(C)cc(-c2ccc(C#N)cc2)cc1C | 37 nM | 20400 nM | 556 | 686 nM | 48 nM | 246 nM | 51 nM | 67 nM | 74 nM | – | – | – | –
18 | CCOC(=O)c1cnc(NC2CCN(Cc3cccc(C(N)=O)c3)CC2)nc1Oc1c(C)cc(-c2ccc(C#N)cc2)cc1C | 15 nM | 11500 nM | 757 | 669 nM | 44 nM | 342 nM | 68 nM | 76 nM | 66 nM | – | – | – | –

Row | Structure (SMILES) | EC50 [1] | CC50 at 120 h [2] | selectivity ratio [3] | IC50 [4] | EC50 [5] | EC50 [6] | EC50 [7] | EC50 [8] | EC50 [9] | solubility [10] | solubility [11] | solubility [12] | solubility [13]
19 | CCOC(=O)c1cnc(NC2CCN(Cc3ccc(S(=O)(=O)NC)cc3)CC2)nc1Oc1c(C)cc(-c2ccc(C#N)cc2)cc1C | 24 nM | 10900 nM | 460 | 744 nM | 26 nM | 177 nM | 38 nM | 72 nM | 35 nM | – | – | – | –
20 | CCOC(=O)c1cnc(NC2CCN(Cc3ccc(B(O)O)cc3)CC2)nc1Oc1c(C)cc(-c2ccc(C#N)cc2)cc1C | 48 nM | 20900 nM | 439 | 1300 nM | – | – | – | – | – | – | – | – | –
21 | CCOC(=O)c1cnc(NC2CCN(Cc3ccc(CO)cc3)CC2)nc1Oc1c(C)cc(-c2ccc(C#N)cc2)cc1C | 40 nM | 192000 nM | 4740 | 514 nM | – | – | – | – | – | – | – | – | –
22 | Br.CCOC(=O)c1cnc(NC2CCN(Cc3ccc(C(=O)NC)cc3)CC2)nc1Nc1c(C)cc(-c2ccc(C#N)cc2)cc1C | – | – | – | – | – | – | – | – | – | < 1 µg/mL | 91.4 µg/mL | < 1 µg/mL | 141 µg/mL
23 | CCOC(=O)c1cnc(NC2CCN(Cc3ccc(C(F)(F)F)cc3)CC2)nc1Oc1c(C)cc(-c2ccc(C#N)cc2)cc1C | 421 nM | > 199000 nM | > 472 | 990 nM | – | – | – | – | – | – | – | – | –
24 | CCOC(=O)c1cnc(NC2CCN(Cc3ccccn3)CC2)nc1Oc1c(C)cc(-c2ccc(C#N)cc2)cc1C | 18 nM | > 222000 nM | > 12200 | 676 nM | 43 nM | 313 nM | 164 nM | 118 nM | 128 nM | – | – | – | –
25 | CCOC(=O)c1cnc(NC2CCN(Cc3ccc(F)cc3F)CC2)nc1Oc1c(C)cc(-c2ccc(C#N)cc2)cc1C | 54 nM | 176000 nM | 3280 | 634 nM | – | – | – | – | – | – | – | – | –
26 | CCOC(=O)c1cnc(NC2CCN(Cc3ccc([N+](=O)[O-])cc3)CC2)nc1Oc1c(C)cc(-c2ccc(C#N)cc2)cc1C | 37 nM | 164000 nM | 4390 | 410 nM | – | – | – | – | – | – | – | – | –
27 | CCOC(=O)c1cnc(NC2CCN(Cc3ccc(OC(F)(F)F)cc3)CC2)nc1Oc1c(C)cc(-c2ccc(C#N)cc2)cc1C | 189 nM | 175000 nM | 923 | 2040 nM | – | – | – | – | – | – | – | – | –
28 | CCOC(=O)c1cnc(NC2CCN(Cc3ccc(C(=O)NC)cc3)CC2)nc1Oc1c(C)cc(-c2ccc(C#N)cc2)cc1C.Cl | – | – | – | – | – | – | – | – | – | < 1 µg/mL | 336 µg/mL | < 1 µg/mL | 103 µg/mL
29 | CCOC(=O)c1cnc(NC2CCN(Cc3ccc(C(=O)NC)cc3)CC2)nc1Nc1c(C)cc(-c2ccc(C#N)cc2)cc1C.O=S(=O)(O)O | – | – | – | – | – | – | – | – | – | < 1 µg/mL | 134 µg/mL | < 1 µg/mL | 147 µg/mL
30 | CCOC(=O)c1cnc(NC2CCN(Cc3ccc(C(N)=O)cc3)CC2)nc1Oc1c(C)cc(-c2ccc(C#N)cc2)cc1C | 11 nM | 191000 nM | 17400 | 596 nM | 17 nM | 94 nM | 50 nM | 48 nM | 45 nM | – | – | – | –
31 | O=C1Nc2ccc(Cl)cc2[C@@](C#CC2CC2)(C(F)(F)F)O1 [EFAVIRENZ] | – | > 6350 nM | – | – | 77 nM | – | 8 nM | 8 nM | 39 nM | – | – | – | –
32 | Cc1cc(C#N)cc(C)c1Oc1nc(Nc2ccc(C#N)cc2)nc(N)c1Br [ETRAVIRINE] | – | > 4610 nM | – | – | – | 24 nM | 13 nM | – | – | < 1 µg/mL | – | < 1 µg/mL | –
33 | Cc1ccnc2c1NC(=O)c1cccnc1N2C1CC1 [NEVIRAPINE] | – | > 15000 nM | – | – | – | > 10000 nM | 153 nM | – | 2000 nM | – | – | – | –
34 | Cc1cc(/C=C/C#N)cc(C)c1Nc1ccnc(Nc2ccc(C#N)cc2)n1 [RILPIVIRINE] | – | – | – | 35 nM | – | – | – | – | – | < 1 µg/mL | – | < 1 µg/mL | –
35 | Cc1cn([C@H]2C[C@H](N=[N+]=[N-])[C@@H](CO)O2)c(=O)[nH]c1=O [ZIDOVUDINE] | 34 nM | > 7490 nM | > 223 | – | 20 nM | 16 nM | 39 nM | 21 nM | 8 nM | – | – | – | –

Reference: ChEMBL document CHEMBL5608191, “Structure-based discovery of novel piperidine-biphenyl-DAPY derivatives as non-nucleoside reverse transcriptase inhibitors featuring improved potency, safety, and selectivity: From piperazine-biphenyl-DAPYs to piperidine-biphenyl-DAPYs” (Eur J Med Chem, 2024)
